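Tested at 5 concentrations; 48 h exposure; 96-well plates; endpoints linearly interpolated, else capped at highest concentration. GI50 is the concentration that inhibits growth by half. Definition used: TGI = concentration required for complete inhibition of growth.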 Bounds are passed on as bounds.

Results on six compounds are retold here after PubChem BioAssay (NCI).

Common to all, as to experiment: NCI tumour cell line growth inhibition, 48 h
Assay [1] has as its system A498 renal.
Assay [2] has as its system A549 NSCLC.
Assay [3] deals with COLO 205 colon.
In assay [4] the test system is EKVX NSCLC.
Assay [5] relates to MOLT-4 leukemia.
The subject of assay [6] is NCI/ADR-RES ovarian.
For assay [7], the system named is OVCAR-5 ovarian.
For assay [8], the system named is PC-3 prostate.
Assay [9] concerns SF-539 CNS.
In assay [10] the test system is SNB-19 CNS.

Consider `C[C@@H]1COCCN1c1cc(C2([S@@](C)(=N)=O)CC2)nc(-c2ccnc3[nH]ccc23)n1`, for which the GI50 in assay [1] is 0.716 µM; in assay [2] it was 4.27 µM; in assay [3], 7.69 µM; in assay [4], 5.78 µM; in assay [5], 3.99 µM; in assay [6], 33.9 µM. Besides, the GI50 in [7] was 5.11 µM; in [8], 10.3 µM; in [9] it was 2.32 µM; in assay [10], 7.72 µM. In addition, the TGI was 4.2 µM in [1]; greater than 100 µM in assay [2]; greater than 83.1 µM in [3]; 67.4 µM in [4]; 62.6 µM in assay [5]; greater than 100 µM in assay [6]. Moreover, the TGI is greater than 100 µM in assay [7], greater than 100 µM in assay [8], 10.6 µM in assay [9] and greater than 100 µM in assay [10].

In the case of `COc1cccc(/C(C)=N/NC(=O)CSc2nc3ccccc3c(=O)n2CCc2ccc(S(N)(=O)=O)cc2)c1`, the GI50 was 8.02 µM in assay [1]; 2.01 µM in assay [2]; 4.13 µM in assay [3]; 5.81 µM in [4]; 6.5 µM in assay [5]; 21.3 µM in [6]. The GI50 was 3.36 µM in assay [7], 3.51 µM in assay [8], 1.88 µM in assay [9] and 2.89 µM in assay [10]. The TGI in [1] is 24.8 µM; in [2] it was 3.93 µM; in [3] it was 21.1 µM; in assay [4], 33.9 µM; in assay [5], 40.2 µM; in assay [6], greater than 100 µM. Also, the TGI worked out at 21 µM in [7], 22.2 µM in assay [8], 3.98 µM in assay [9] and 7.87 µM in [10].

With `O=C(Nc1cc(Oc2cc(F)c(NC(=O)C3(C(=O)Nc4ccc(F)cc4)CC3)cc2F)ccn1)C1CC1`, the GI50 is 2.41 µM in assay [1]; 3.21 µM in assay [2]; 1.4 µM in [3]; 2.42 µM in assay [4]; 2.18 µM in assay [5]; 2.79 µM in [6]. Besides, the GI50 in [7] is 3.12 µM; in [8], 2.51 µM; in [9], 1.83 µM; in assay [10] it was 3.75 µM. The TGI in assay [1] was 5.18 µM; in assay [2], greater than 36.6 µM; in [3], 3.27 µM; in assay [4] it was 5.51 µM; in [5], 7.1 µM; in assay [6] it was 8.73 µM. For the same compound, the TGI in assay [7] was greater than 100 µM; in assay [8], 6.85 µM; in assay [9], 4.14 µM; in assay [10] it was greater than 100 µM.

In the case of `COc1cccc(C2C3=C(COC3=O)N(CCO)c3cc4c(cc32)OCO4)c1` (stereo not drawn), the GI50 in [1] was 0.263 µM; in [2] it was 0.631 µM; in assay [3], 0.191 µM; in assay [4], 1.03 µM; in assay [5] it was 0.315 µM; in assay [6], 0.341 µM. For the same compound, the GI50 in [7] was 2.03 µM; in [8] it was 0.265 µM; in [9] it was 0.36 µM. In addition, the TGI was 5.1 µM in [1]; greater than 50 µM in assay [2]; 0.854 µM in [3]; greater than 50 µM in assay [4]; greater than 16.7 µM in assay [5]; 2.72 µM in assay [6]. In addition, the TGI is greater than 50 µM in assay [7], greater than 50 µM in [8] and greater than 10.6 µM in [10].

Take `Cn1c(=S)c2[nH]c(SCCN3C(=O)c4ccccc4C3=O)nc2n(C)c1=O`: the TGI in assay [1], in assay [2], in [3], in assay [4], in [5] and in assay [6] was greater than 100 µM each time. Besides, the TGI in assay [7], in assay [8], in assay [9] and in assay [10] was greater than 100 µM throughout.

Take `O=S(=O)(Nc1ccc(F)c(Cl)c1)c1ccc(-c2cnc(C3CC3)o2)cc1`: the GI50 was 0.156 µM in [1]; 0.773 µM in assay [2]; 0.375 µM in assay [3]; 0.609 µM in [4]; 0.396 µM in assay [5]; 0.252 µM in [6]. In addition, the GI50 in assay [7] was 0.798 µM; in [8], 0.322 µM; in assay [9], 0.305 µM; in assay [10], 0.389 µM. Also, the TGI in assay [1] is 0.823 µM; in assay [2] it was 13.1 µM; in assay [3], 4.69 µM; in [4], 11.9 µM; in [5], 88.2 µM; in assay [6], 8.76 µM. The TGI in assay [7] is 13.4 µM; in [8], 12.3 µM; in assay [9] it was 1.8 µM; in assay [10], 13.7 µM.
